Results reported in ChEMBL document CHEMBL3885881, “DrugMatrix”.

Organism: Rattus norvegicus
Test: DrugMatrix - Regimen: Daily Repeat
Assay type: toxicity, organism-based, Sprague-Dawley
Parameters: regimen Daily Repeat, gender Male, age 6-8 weeks
Details: in vivo, po, route oral GAVAGE, […]; for ABSOLUTE BASOPHIL / ABSOLUTE EOSINOPHIL / ABSOLUTE LYMPHOCYTE / ABSOLUTE MONOCYTE / ABSOLUTE SEGMENTED NEUTROPHIL / BASOPHIL / EOSINOPHIL / ERYTHROCYTE COUNT / HEMATOCRIT / HEMOGLOBIN / LEUKOCYTE COUNT / LYMPHOCYTE / MEAN CORPUSCULAR HEMOGLOBIN / MEAN CORPUSCULAR HEMOGLOBIN CONCENTRATION / MEAN CORPUSCULAR VOLUME / MONOCYTE / NEUTROPHIL / NUCLEATED RED BLOOD CELLS / PLATELET COUNT: tissue Blood; for ALANINE AMINOTRANSFERASE / ALBUMIN / ALKALINE PHOSPHATASE / ASPARTATE AMINOTRANSFERASE / BLOOD UREA NITROGEN / CARBON DIOXIDE / CHLORIDE / CHOLESTEROL / CREATINE PHOSPHOKINASE / CREATININE / GLUCOSE / LACTATE DEHYDROGENASE / LIPASE / PHOSPHORUS / POTASSIUM / SODIUM / TOTAL BILIRUBIN / TOTAL PROTEIN / URIC ACID: tissue Plasma
[1] = 100 mg/kg, 120 h, dose level M1, time 5 day
[2] = 610 mg/kg, 72 h, dose level High, time 3 day
[3] = 610 mg/kg, 120 h, dose level High, time 5 day

For `CC(C)(c1ccc(O)cc1)c1ccc(O)cc1` [BISPHENOL A], the “ABSOLUTE BASOPHIL” value [1] was 0 CELLS/uL, the “ABSOLUTE EOSINOPHIL” value [1] was 0 CELLS/uL and the “ABSOLUTE LYMPHOCYTE” value [1] was 6683.33 CELLS/uL. The “ABSOLUTE MONOCYTE” value [1] was 63.33 CELLS/uL, the “ABSOLUTE SEGMENTED NEUTROPHIL” value [1] was 353.33 CELLS/uL and the BASOPHIL [1] was 0%. The EOSINOPHIL [1] was 0%, the “ERYTHROCYTE COUNT” value [1] was 5.4 x10E6/uL and the HEMATOCRIT [1] was 32.4%. The HEMOGLOBIN [1] was 12.83 G/DL, the “LEUKOCYTE COUNT” value [1] was 7.1 x10E3/uL and the LYMPHOCYTE [1] was 94%. The “MEAN CORPUSCULAR HEMOGLOBIN” value [1] was 23.8 pg, the “MEAN CORPUSCULAR HEMOGLOBIN CONCENTRATION” value [1] was 39.63 G/DL and the “MEAN CORPUSCULAR VOLUME” value [1] was 59.87 fL. For the same compound, the MONOCYTE [1] was 1%, the NEUTROPHIL [1] was 5% and the “NUCLEATED RED BLOOD CELLS” value [1] was 0 /100WBC. The “PLATELET COUNT” value [1] was 1281.67 x10E3/uL, the “ALANINE AMINOTRANSFERASE” value [1] was 80.33 u/L and the ALBUMIN [1] was 4.13 G/DL. The “ALKALINE PHOSPHATASE” value [1] was 398.67 u/L, the “ASPARTATE AMINOTRANSFERASE” value [1] was 90.33 u/L and the “BLOOD UREA NITROGEN” value [1] was 13.33 mg/dL. For the same compound, the “CARBON DIOXIDE” value [1] was 29.33 mmol/L, the CHLORIDE [1] was 100.33 MEQ/L and the CHOLESTEROL [1] was 54.67 mg/dL. For the same compound, the “CREATINE PHOSPHOKINASE” value [1] was 295 u/L, the CREATININE [1] was 0.26 mg/dL and the GLUCOSE [1] was 161 mg/dL. For the same compound, the “LACTATE DEHYDROGENASE” value [1] was 102.33 u/L, the LIPASE [1] was 13.33 u/L and the PHOSPHORUS [1] was 9.57 mg/dL. The POTASSIUM [1] was 5.37 MEQ/L, the SODIUM [1] was 144.17 MEQ/L and the “TOTAL BILIRUBIN” value [1] was 0.17 mg/dL. The “TOTAL PROTEIN” value [1] was 5.77 G/DL, the “URIC ACID” value [1] was 0.83 mg/dL and the “ABSOLUTE BASOPHIL” value [2] was 0 CELLS/uL. For the same compound, the “ABSOLUTE EOSINOPHIL” value [2] was 22.33 CELLS/uL, the “ABSOLUTE LYMPHOCYTE” value [2] was 6406 CELLS/uL and the “ABSOLUTE MONOCYTE” value [2] was 44.67 CELLS/uL. The “ABSOLUTE SEGMENTED NEUTROPHIL” value [2] was 760.33 CELLS/uL, the BASOPHIL [2] was 0% and the EOSINOPHIL [2] was 0.33%. The “ERYTHROCYTE COUNT” value [2] was 5.65 x10E6/uL, the HEMATOCRIT [2] was 34.33% and the HEMOGLOBIN [2] was 13.43 G/DL. For the same compound, the “LEUKOCYTE COUNT” value [2] was 7.23 x10E3/uL, the LYMPHOCYTE [2] was 88.33% and the “MEAN CORPUSCULAR HEMOGLOBIN” value [2] was 23.77 pg. The “MEAN CORPUSCULAR HEMOGLOBIN CONCENTRATION” value [2] was 39.1 G/DL, the “MEAN CORPUSCULAR VOLUME” value [2] was 60.8 fL and the MONOCYTE [2] was 0.67%. For the same compound, the NEUTROPHIL [2] was 10.67%, the “NUCLEATED RED BLOOD CELLS” value [2] was 0.33 /100WBC and the “PLATELET COUNT” value [2] was 1156 x10E3/uL. The “ALANINE AMINOTRANSFERASE” value [2] was 84.33 u/L, the ALBUMIN [2] was 3.93 G/DL and the “ALKALINE PHOSPHATASE” value [2] was 316.33 u/L. For the same compound, the “ASPARTATE AMINOTRANSFERASE” value [2] was 77.67 u/L, the “BLOOD UREA NITROGEN” value [2] was 15.67 mg/dL and the “CARBON DIOXIDE” value [2] was 31.33 mmol/L. For the same compound, the CHLORIDE [2] was 100 MEQ/L, the CHOLESTEROL [2] was 64.33 mg/dL and the “CREATINE PHOSPHOKINASE” value [2] was 263.67 u/L. The CREATININE [2] was 0.18 mg/dL, the GLUCOSE [2] was 157.33 mg/dL and the “LACTATE DEHYDROGENASE” value [2] was 115.67 u/L. It also gave an LIPASE [2] of 10 u/L, a PHOSPHORUS [2] of 10.37 mg/dL and a POTASSIUM [2] of 5.53 MEQ/L. The SODIUM [2] was 143.73 MEQ/L, the “TOTAL BILIRUBIN” value [2] was 0.27 mg/dL and the “TOTAL PROTEIN” value [2] was 5.73 G/DL. The “URIC ACID” value [2] was 0.7 mg/dL, the “ABSOLUTE BASOPHIL” value [3] was 0 CELLS/uL and the “ABSOLUTE EOSINOPHIL” value [3] was 0 CELLS/uL. For the same compound, the “ABSOLUTE LYMPHOCYTE” value [3] was 8347 CELLS/uL, the “ABSOLUTE MONOCYTE” value [3] was 82 CELLS/uL and the “ABSOLUTE SEGMENTED NEUTROPHIL” value [3] was 671 CELLS/uL. For the same compound, the BASOPHIL [3] was 0%, the EOSINOPHIL [3] was 0% and the “ERYTHROCYTE COUNT” value [3] was 5.73 x10E6/uL. The HEMATOCRIT [3] was 35.8%, the HEMOGLOBIN [3] was 14.07 G/DL and the “LEUKOCYTE COUNT” value [3] was 9.1 x10E3/uL. The LYMPHOCYTE [3] was 91.67%, the “MEAN CORPUSCULAR HEMOGLOBIN” value [3] was 24.6 pg and the “MEAN CORPUSCULAR HEMOGLOBIN CONCENTRATION” value [3] was 39.3 G/DL. For the same compound, the “MEAN CORPUSCULAR VOLUME” value [3] was 62.63 fL, the MONOCYTE [3] was 0.67% and the NEUTROPHIL [3] was 7.67%. For the same compound, the “NUCLEATED RED BLOOD CELLS” value [3] was 0.33 /100WBC, the “PLATELET COUNT” value [3] was 1180 x10E3/uL and the “ALANINE AMINOTRANSFERASE” value [3] was 106.33 u/L. The ALBUMIN [3] was 4.3 G/DL, the “ALKALINE PHOSPHATASE” value [3] was 452.33 u/L and the “ASPARTATE AMINOTRANSFERASE” value [3] was 135.67 u/L. For the same compound, the “BLOOD UREA NITROGEN” value [3] was 12 mg/dL, the “CARBON DIOXIDE” value [3] was 29 mmol/L and the CHLORIDE [3] was 100.5 MEQ/L. The CHOLESTEROL [3] was 60.33 mg/dL, the “CREATINE PHOSPHOKINASE” value [3] was 592 u/L and the CREATININE [3] was 0.11 mg/dL. The GLUCOSE [3] was 154 mg/dL, the “LACTATE DEHYDROGENASE” value [3] was 112 u/L and the LIPASE [3] was 48.33 u/L. The PHOSPHORUS [3] was 8.77 mg/dL, the POTASSIUM [3] was 5.17 MEQ/L and the SODIUM [3] was 144.95 MEQ/L. The “TOTAL BILIRUBIN” value [3] was 0.27 mg/dL, the “TOTAL PROTEIN” value [3] was 5.53 G/DL and the “URIC ACID” value [3] was 0.6 mg/dL.
